Test results taken from patent publication US5631354A, “5-O-desosaminylerythronolide derivatives” (Taisho Pharmaceutical Co., Ltd., priority 1991, dated 1997).
Values after ≈ are worked out from the molar mass of the structure shown. Read-outs that look alike come from different tables or passages of the source.

How the values were obtained:
Experiment in all cases: in vitro antibacterial activity (MIC measuring method of Japanese Chemotherapeutic Association)
Type in all cases: cell-based
[1] = test system: E. faecalis CSJ 1212; details: Enterococcus faecalis
Method: (§1) The in vitro antibacterial activity of the compounds of the present invention against various test bacteria was determined according to the MIC measuring method of Japanese Chemotherapeutic Association by using a sensitive disc media (available from Eiken Chemical Co.). 6-O-methylerythromycin A was used as a reference agent in Table 1, and erythromycin A in Table 2.

[2] = test system: S. aureus 209P-JC; details: Staphylococcus aureus, read-out: MIC value (minimum inhibitory concentration)
Method: as §1

[3] = test system: S. aureus B1; details: Staphylococcus aureus
Method: as §1

[4] = test system: S. aureus C1; details: Staphylococcus aureus
Method: as §1

[5] = test system: S. aureus J-109; details: Staphylococcus aureus, J109, sensitive disc media, read-out: MIC value (minimum inhibitory concentration)
Method: as §1

[6] = test system: S. aureus Smith 4; details: Staphylococcus aureus, SMITH4, sensitive disc media, read-out: MIC value (minimum inhibitory concentration)
Method: as §1

[7] = test system: S. epidermides IID 866; details: read-out: MIC value (minimum inhibitory concentration)
Method: as §1

[8] = CSJ1212, E. faecalis CSJ 1212, sensitive disc media, read-out: MIC value (minimum inhibitory concentration)
[9] = B1, read-out: MIC value (minimum inhibitory concentration)
[10] = C1, read-out: MIC value (minimum inhibitory concentration)
[11] = CSJ1212, read-out: MIC value (minimum inhibitory concentration)
[12] = S. aureus 209P-JC, sensitive disc media

| SMILES | MIC [1, 8] [µg/mL] | MIC ([2]; 209P) [µg/mL] | MIC [3, 9] [µg/mL] | MIC [4, 10] [µg/mL] | MIC [5] [µg/mL] | MIC [6] [µg/mL] | MIC [7] [µg/mL] | MIC [1, 11] [µg/mL] | MIC [2, 12] [µg/mL] | MIC ([3]; S. aureus B1, sensitive disc media, read-out: MIC value (minimum inhibitory concentration)) [µg/mL] | MIC ([4]; S. aureus C1, sensitive disc media, read-out: MIC value (minimum inhibitory concentration)) [µg/mL] |
| --- | --- | --- | --- | --- | --- | --- | --- | --- | --- | --- | --- |
| CC[C@H]1OC(=O)[C@H](C)[C@@H](OC(=O)Cc2ccc([N+](=O)[O-])cc2)[C@H](C)[C@@H](O[C@@H]2O[C@H](C)C[C@H](N(C)C)[C@H]2O)[C@](C)(O)C[C@@H](C)C(=NO)[C@H](C)[C@H]2OC(=O)O[C@@]21C [Example 15, 3-0-(4-nitrophenyl)acetyl-5-O-desosaminylerythronolide A 9-oxime 11,12-cyclic carbonate] | 0.05 (≈ 0.0641 µM) | 0.05 (≈ 0.0641 µM) | 0.1 (≈ 0.128 µM) | 0.78 (≈ 1 µM) | > 100 | 0.05 (≈ 0.0641 µM) | 0.05 (≈ 0.0641 µM) | – | – | – | – |
| CC[C@H]1OC(=O)[C@H](C)[C@@H](OC(=O)Cc2ccc([N+](=O)[O-])cc2[N+](=O)[O-])[C@H](C)[C@@H](O[C@@H]2O[C@H](C)C[C@H](N(C)C)[C@H]2O)[C@](C)(OC)C[C@@H](C)C(=O)[C@H](C)[C@@H](O)[C@]1(C)O [Example 3, 3-O-(2,4-dinitrophenyl)acetyl-5-O-desosaminyl-6-O-methylerythronolide A] | – | 0.05 (≈ 0.0627 µM) | 0.2 (≈ 0.251 µM) | 0.1 (≈ 0.125 µM) | > 100 | 0.1 (≈ 0.125 µM) | 0.1 (≈ 0.125 µM) | 0.1 (≈ 0.125 µM) | – | – | – |
| CC[C@H]1OC(=O)[C@H](C)[C@@H](OC(=O)Cc2ccc([N+](=O)[O-])cc2)[C@H](C)[C@@H](O[C@@H]2O[C@H](C)C[C@H](N(C)C)[C@H]2O)[C@](C)(OC)C[C@@H](C)C(=O)[C@H](C)[C@H]2OC(=O)O[C@@]21C [Example 9, 3-O-(4-nitrophenyl)acetyl-5-O-desosaminyl-6-O-methylerythronolide A 11,12 cyclic carbonate] | 0.05 (≈ 0.0642 µM) | – | – | 0.05 (≈ 0.0642 µM) | > 100 | 0.05 (≈ 0.0642 µM) | 0.05 (≈ 0.0642 µM) | – | 0.025 (≈ 0.0321 µM) | 0.2 (≈ 0.257 µM) | – |
| CC[C@H]1OC(=O)[C@H](C)[C@@H](OC(=O)Cc2ccc([N+](=O)[O-])cc2)[C@H](C)[C@@H](O[C@@H]2O[C@H](C)C[C@H](N(C)C)[C@H]2O)[C@](C)(OC)C[C@@H](C)C(=NO)[C@H](C)[C@H]2OC(=O)O[C@@]21C [Example 1, 3-O-(4-nitrophenyl)acetyl-5-O-desosaminyl-6-O-methylerythronolide A 9-oxime 11,12cyclic carbonate] | 0.05 (≈ 0.063 µM) | – | 0.1 (≈ 0.126 µM) | 0.1 (≈ 0.126 µM) | > 100 | 0.05 (≈ 0.063 µM) | 0.05 (≈ 0.063 µM) | – | 0.025 (≈ 0.0315 µM) | – | – |
| CC[C@H]1OC(=O)[C@H](C)[C@@H](O[C@H]2C[C@@](C)(OC)[C@@H](O)[C@H](C)O2)[C@H](C)[C@@H](O[C@@H]2O[C@H](C)C[C@H](N(C)C)[C@H]2O)[C@](C)(O)C[C@@H](C)C(=O)[C@H](C)[C@@H](O)[C@]1(C)O [erythromycin A, reference compound] | – | 0.1 (≈ 0.136 µM) | > 100 | > 100 | > 100 | 0.2 (≈ 0.273 µM) | 0.1 (≈ 0.136 µM) | 0.78 (≈ 1.06 µM) | – | – | – |
| CC[C@H]1OC(=O)[C@H](C)[C@@H](O[C@H]2C[C@@](C)(OC)[C@@H](O)[C@H](C)O2)[C@H](C)[C@@H](O[C@@H]2O[C@H](C)C[C@H](N(C)C)[C@H]2O)[C@](C)(OC)C[C@@H](C)C(=O)[C@H](C)[C@@H](O)[C@]1(C)O [6-O-methylerythromycin A, reference compound] | – | 0.05 (≈ 0.0668 µM) | > 100 | – | > 100 | 0.1 (≈ 0.134 µM) | 0.1 (≈ 0.134 µM) | 0.78 (≈ 1.04 µM) | – | – | 25 (≈ 33.4 µM) |
